In ChEMBL document CHEMBL1123701, “Synthesis and quantitative structure-activity relationship analysis of N-triiodoallyl- and N-iodopropargylazoles. New antifungal agents” (1987):
≈ marks a conversion by molar mass, not a printed value.

Assays:
Trichophyton benhamiae = assay: Antifungal activity towards Trichophyton mentagrophytes 530324 strain; assay type: functional, Arthroderma benhamiae
Cryptococcus neoformans = assay: Antifungal activity against Cryptococcus neoformans Cr-1 strain; assay type: functional
Aspergillus fumigatus = assay: Antifungal activity against Aspergillus fumigatus Saito strain; assay type: functional
[1] = system: Trichophyton interdigitale; assay: Antifungal activity towards Trichophyton interdigitale; assay type: functional
Candida albicans = assay: Antifungal activity against Candida albicans C-A-24 strain; assay type: functional

Structure (SMILES) | MIC (Trichophyton benhamiae) | MIC (Cryptococcus neoformans) | MIC (Aspergillus fumigatus) | MIC [1] | MIC (Candida albicans)
IC#CCn1ncnn1 | 0.78 µg/mL (≈ 3.33 µM) | 0.39 µg/mL (≈ 1.67 µM) | 0.39 µg/mL (≈ 1.67 µM) | 0.78 µg/mL (≈ 3.33 µM) | 1.56 µg/mL (≈ 6.67 µM)
CC(C)Cc1nnn(CC#CI)n1 | 0.39 µg/mL (≈ 1.34 µM) | 3.13 µg/mL (≈ 10.8 µM) | 0.78 µg/mL (≈ 2.69 µM) | 0.39 µg/mL (≈ 1.34 µM) | 3.13 µg/mL (≈ 10.8 µM)
CC(C)c1nnn(CC(I)=C(I)I)n1 | 0.78 µg/mL (≈ 1.47 µM) | – | – | – | 6.25 µg/mL (≈ 11.8 µM)
CN(C)c1ccc(-c2nnn(CC#CI)n2)cc1 | 0.78 µg/mL (≈ 2.21 µM) | 50 µg/mL (≈ 142 µM) | 50 µg/mL (≈ 142 µM) | 0.78 µg/mL (≈ 2.21 µM) | 50 µg/mL (≈ 142 µM)
CC(C)Cc1nnnn1CC#CI | 1.56 µg/mL (≈ 5.38 µM) | 6.25 µg/mL (≈ 21.5 µM) | 3.13 µg/mL (≈ 10.8 µM) | 1.56 µg/mL (≈ 5.38 µM) | 12.5 µg/mL (≈ 43.1 µM)
CC(C)(C)c1nnn(CC#CI)n1 | 0.78 µg/mL (≈ 2.69 µM) | 25 µg/mL (≈ 86.2 µM) | 1.56 µg/mL (≈ 5.38 µM) | 0.78 µg/mL (≈ 2.69 µM) | 3.13 µg/mL (≈ 10.8 µM)
Cc1nnnn1CC(I)=C(I)I | 0.78 µg/mL (≈ 1.55 µM) | – | – | – | 3.13 µg/mL (≈ 6.24 µM)
Cc1nccn1CC(I)=C(I)I | 6.25 µg/mL (≈ 12.5 µM) | 25 µg/mL (≈ 50 µM) | 6.25 µg/mL (≈ 12.5 µM) | 3.13 µg/mL (≈ 6.26 µM) | 12.5 µg/mL (≈ 25 µM)
O=[N+]([O-])c1ccc(-c2nnn(CC(I)=C(I)I)n2)cc1 | > 100 µg/mL | > 100 µg/mL | > 100 µg/mL | > 100 µg/mL | > 100 µg/mL
O=[N+]([O-])c1cccn1CC(I)=C(I)I | 0.2 µg/mL (≈ 0.377 µM) | 6.25 µg/mL (≈ 11.8 µM) | 0.39 µg/mL (≈ 0.736 µM) | 0.1 µg/mL (≈ 0.189 µM) | 0.39 µg/mL (≈ 0.736 µM)
IC#CCn1nnnc1Cc1ccccc1 | 0.78 µg/mL (≈ 2.41 µM) | 12.5 µg/mL (≈ 38.6 µM) | 1.56 µg/mL (≈ 4.81 µM) | 0.39 µg/mL (≈ 1.2 µM) | 12.5 µg/mL (≈ 38.6 µM)
IC#CCn1nnnc1C1CC1 | 1.56 µg/mL (≈ 5.69 µM) | 12.5 µg/mL (≈ 45.6 µM) | 3.13 µg/mL (≈ 11.4 µM) | 3.13 µg/mL (≈ 11.4 µM) | 12.5 µg/mL (≈ 45.6 µM)
Cc1ccc(-c2nnn(CC#CI)n2)cc1 | 0.2 µg/mL (≈ 0.617 µM) | – | – | – | –
IC(I)=C(I)Cn1nnc(-c2ccccc2)n1 | 1.56 µg/mL (≈ 2.77 µM) | – | – | 3.13 µg/mL (≈ 5.55 µM) | 12.5 µg/mL (≈ 22.2 µM)
COC(=O)c1cc([N+](=O)[O-])cn1CC(I)=C(I)I | 0.39 µg/mL (≈ 0.663 µM) | 3.13 µg/mL (≈ 5.32 µM) | 1.56 µg/mL (≈ 2.65 µM) | 0.39 µg/mL (≈ 0.663 µM) | 3.13 µg/mL (≈ 5.32 µM)
IC#CCn1cnnn1 | 1.56 µg/mL (≈ 6.67 µM) | 0.78 µg/mL (≈ 3.33 µM) | 1.56 µg/mL (≈ 6.67 µM) | 1.56 µg/mL (≈ 6.67 µM) | 3.13 µg/mL (≈ 13.4 µM)
IC(I)=C(I)Cn1nnc(C2CC2)n1 | 0.2 µg/mL (≈ 0.379 µM) | 3.13 µg/mL (≈ 5.93 µM) | 0.39 µg/mL (≈ 0.739 µM) | 0.2 µg/mL (≈ 0.379 µM) | 3.13 µg/mL (≈ 5.93 µM)
IC(I)=C(I)Cn1cnnn1 | 0.39 µg/mL (≈ 0.799 µM) | 3.13 µg/mL (≈ 6.42 µM) | – | – | 3.13 µg/mL (≈ 6.42 µM)
O=[N+]([O-])c1ccn(CC(I)=C(I)I)c1 | 0.2 µg/mL (≈ 0.377 µM) | – | 0.2 µg/mL (≈ 0.377 µM) | – | 0.2 µg/mL (≈ 0.377 µM)
IC(I)=C(I)Cn1ccnc1 | 1.56 µg/mL (≈ 3.21 µM) | – | 1.56 µg/mL (≈ 3.21 µM) | 3.13 µg/mL (≈ 6.44 µM) | 1.56 µg/mL (≈ 3.21 µM)
O=[N+]([O-])c1nccn1CC(I)=C(I)I | 0.78 µg/mL (≈ 1.47 µM) | – | – | – | 0.78 µg/mL (≈ 1.47 µM)
O=[N+]([O-])c1cn(CC(I)=C(I)I)cn1 | 0.78 µg/mL (≈ 1.47 µM) | 6.25 µg/mL (≈ 11.8 µM) | 0.39 µg/mL (≈ 0.735 µM) | 0.39 µg/mL (≈ 0.735 µM) | 3.13 µg/mL (≈ 5.9 µM)
COC(=O)c1cccn1CC#CI | 1.56 µg/mL (≈ 5.4 µM) | 6.25 µg/mL (≈ 21.6 µM) | 1.56 µg/mL (≈ 5.4 µM) | 1.56 µg/mL (≈ 5.4 µM) | 3.13 µg/mL (≈ 10.8 µM)
IC(I)=C(I)Cn1ccnn1 | 0.39 µg/mL (≈ 0.801 µM) | 6.25 µg/mL (≈ 12.8 µM) | 0.78 µg/mL (≈ 1.6 µM) | 0.78 µg/mL (≈ 1.6 µM) | 3.13 µg/mL (≈ 6.43 µM)

Results, then the molecule that gave them:

MIC (Trichophyton benhamiae) | MIC (Cryptococcus neoformans) | MIC (Aspergillus fumigatus) | MIC [1] | MIC (Candida albicans) | Structure (SMILES)
0.1 µg/mL (≈ 0.294 µM) | 25 µg/mL (≈ 73.5 µM) | 0.78 µg/mL (≈ 2.29 µM) | 0.2 µg/mL (≈ 0.588 µM) | 25 µg/mL (≈ 73.5 µM) | COc1ccc(-c2nnnn2CC#CI)cc1
0.2 µg/mL (≈ 0.613 µM) | 12.5 µg/mL (≈ 38.3 µM) | 0.39 µg/mL (≈ 1.2 µM) | 0.1 µg/mL (≈ 0.307 µM) | 6.25 µg/mL (≈ 19.2 µM) | Oc1ccc(-c2nnn(CC#CI)n2)cc1
0.2 µg/mL (≈ 0.399 µM) | – | 0.39 µg/mL (≈ 0.777 µM) | 0.2 µg/mL (≈ 0.399 µM) | 0.78 µg/mL (≈ 1.55 µM) | Cc1nnn(CC(I)=C(I)I)n1
0.1 µg/mL (≈ 0.171 µM) | > 25 µg/mL | – | 0.1 µg/mL (≈ 0.171 µM) | > 25 µg/mL | CCCCCCCc1nnnn1CC(I)=C(I)I
0.1 µg/mL (≈ 0.179 µM) | > 25 µg/mL | – | 0.1 µg/mL (≈ 0.179 µM) | – | CCCCCc1nnnn1CC(I)=C(I)I
0.1 µg/mL (≈ 0.301 µM) | 6.25 µg/mL (≈ 18.8 µM) | 0.78 µg/mL (≈ 2.35 µM) | 0.1 µg/mL (≈ 0.301 µM) | 12.5 µg/mL (≈ 37.6 µM) | CCCCCCCc1nnn(CC#CI)n1
0.2 µg/mL (≈ 0.58 µM) | – | 0.39 µg/mL (≈ 1.13 µM) | 0.39 µg/mL (≈ 1.13 µM) | 1.56 µg/mL (≈ 4.53 µM) | Clc1ccc(-c2nnnn2CC#CI)cc1
0.1 µg/mL (≈ 0.309 µM) | 6.25 µg/mL (≈ 19.3 µM) | 0.78 µg/mL (≈ 2.41 µM) | 0.1 µg/mL (≈ 0.309 µM) | 6.25 µg/mL (≈ 19.3 µM) | IC#CCn1nnc(Cc2ccccc2)n1
0.2 µg/mL (≈ 0.334 µM) | 0.2 µg/mL (≈ 0.334 µM) | 0.2 µg/mL (≈ 0.334 µM) | – | 0.39 µg/mL (≈ 0.651 µM) | O=[N+]([O-])c1cn(CC(I)=C(I)I)c(Cl)c1Cl
0.1 µg/mL (≈ 0.29 µM) | 1.56 µg/mL (≈ 4.53 µM) | 0.78 µg/mL (≈ 2.26 µM) | 0.1 µg/mL (≈ 0.29 µM) | 1.56 µg/mL (≈ 4.53 µM) | Clc1ccccc1-c1nnn(CC#CI)n1
0.1 µg/mL (≈ 0.179 µM) | 6.25 µg/mL (≈ 11.2 µM) | 3.13 µg/mL (≈ 5.59 µM) | 1.56 µg/mL (≈ 2.79 µM) | 6.25 µg/mL (≈ 11.2 µM) | CCOCCc1nnnn1CC(I)=C(I)I
0.1 µg/mL (≈ 0.205 µM) | – | 0.2 µg/mL (≈ 0.41 µM) | 0.1 µg/mL (≈ 0.205 µM) | 0.2 µg/mL (≈ 0.41 µM) | IC(I)=C(I)Cn1ncnn1
